Measurements from the Kinase Knowledgebase extract (Sharma et al. 2016).

target: PIK3CG (human) (UniProt P48736); experiment: Assessment of PIK3CG Kinase Activity
Sequence (P48736 whole entry, looked up): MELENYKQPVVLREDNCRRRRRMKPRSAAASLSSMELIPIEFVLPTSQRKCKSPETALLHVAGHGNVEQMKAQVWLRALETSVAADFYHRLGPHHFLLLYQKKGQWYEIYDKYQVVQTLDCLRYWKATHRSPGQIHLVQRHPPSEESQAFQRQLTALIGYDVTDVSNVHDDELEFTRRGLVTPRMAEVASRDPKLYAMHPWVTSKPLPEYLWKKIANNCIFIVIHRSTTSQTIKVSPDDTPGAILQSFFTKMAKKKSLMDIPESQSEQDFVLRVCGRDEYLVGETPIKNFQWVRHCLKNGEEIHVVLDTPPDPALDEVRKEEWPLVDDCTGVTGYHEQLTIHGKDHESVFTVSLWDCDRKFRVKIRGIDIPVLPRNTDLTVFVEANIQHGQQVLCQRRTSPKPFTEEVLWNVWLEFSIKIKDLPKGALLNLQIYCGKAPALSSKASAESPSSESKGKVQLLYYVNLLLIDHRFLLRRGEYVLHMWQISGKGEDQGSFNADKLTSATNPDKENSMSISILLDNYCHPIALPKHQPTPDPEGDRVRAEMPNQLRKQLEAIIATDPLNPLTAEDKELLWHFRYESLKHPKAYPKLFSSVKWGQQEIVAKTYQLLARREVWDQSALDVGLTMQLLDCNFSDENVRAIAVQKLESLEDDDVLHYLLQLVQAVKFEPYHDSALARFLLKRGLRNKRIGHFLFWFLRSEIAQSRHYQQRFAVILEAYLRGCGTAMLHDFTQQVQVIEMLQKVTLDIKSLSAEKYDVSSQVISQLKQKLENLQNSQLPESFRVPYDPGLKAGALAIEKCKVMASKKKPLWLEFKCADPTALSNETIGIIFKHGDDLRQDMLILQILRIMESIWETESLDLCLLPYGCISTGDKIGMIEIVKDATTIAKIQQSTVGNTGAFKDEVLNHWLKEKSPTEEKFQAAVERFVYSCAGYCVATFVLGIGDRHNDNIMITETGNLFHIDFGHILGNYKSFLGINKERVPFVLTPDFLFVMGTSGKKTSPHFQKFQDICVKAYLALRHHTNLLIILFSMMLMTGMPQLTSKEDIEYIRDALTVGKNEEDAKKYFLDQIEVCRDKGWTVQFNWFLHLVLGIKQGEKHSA

SMILES	IC50 [nM]
CC(C)N1CC(=O)N(C)c2cnc(Nc3cc(-c4cc(C5CC5)[nH]n4)cc(S(C)(=O)=O)c3)nc21	< 800
CC(C)N1CC(=O)N(C)c2cnc(Nc3cc(N4CCNC4=O)cc(S(C)(=O)=O)c3)nc21	< 800
CNCCS(=O)(=O)c1cccc(Nc2ncc3c(n2)N(C(C)C)CC(=O)N3C)c1	< 800
CN1C(=O)CN(c2ccccc2)c2nc(Nc3cccc(S(=O)(=O)CCN4CCCCC4)c3)ncc21	< 800
CCN1CCCC1CNC(=O)c1cc(Nc2ncc3c(n2)N(C(C)C)CC(=O)N3C)cc(S(C)(=O)=O)c1 (centres undefined)	< 800
CC(C)N1CC(=O)N(C)c2cnc(Nc3cc(NC(=O)N[C@H]4CCN(C5CCCC5)C4)cc(S(N)(=O)=O)c3)nc21	< 800
CC(C)N1CC(=O)N(C)c2cnc(Nc3cc(NC(=O)N[C@H]4CC[C@@H](N(C)C)CC4)cc(S(C)(=O)=O)c3)nc21	< 800
CC(C)N1CC(=O)N(C)c2cnc(Nc3cc(NC(=O)O[C@@H]4CCN(C5CCCC5)C4)cc(S(C)(=O)=O)c3)nc21	< 800
CC(C)N1CC(=O)N(C)c2cnc(Nc3cc(C(=O)NC4CCN(C)CC4)cc(S(C)(=O)=O)c3)nc21	< 800
CC(C)N1CC(=O)N(C)c2cnc(Nc3cccc(S(=O)(=O)CCO)c3)nc21	< 800
CC(C)N1CC(=O)N(C)c2cnc(Nc3cc(NC(=O)N[C@H]4CCN(C(=O)OC(C)(C)C)C4)cc(S(C)(=O)=O)c3)nc21	< 800
CC(C)N1CC(=O)N(C)c2cnc(Nc3cc(NS(=O)(=O)c4cccnc4)cc(S(N)(=O)=O)c3)nc21	< 800
CNS(=O)(=O)c1cccc(Nc2ncc3c(n2)N(C(C)C)CC(=O)N3C)c1	< 800
CC(C)N1CC(=O)N(C)c2cnc(Nc3cc(NC(=O)N[C@@H]4CCN(C5CCCC5)C4)cc(S(N)(=O)=O)c3)nc21	< 800
CC(C)N1CC(=O)N(C)c2cnc(Nc3cc(NC(=O)[C@@H]4CCCN(C5CCCC5)C4)cc(S(C)(=O)=O)c3)nc21	< 800
CN1C(=O)CN(c2ccccc2)c2nc(Nc3cccc(S(=O)(=O)CCNC4CC4)c3)ncc21	< 800

SMILES	IC50 [nM]
CC(C)N1CC(=O)N(C)c2cnc(Nc3cc(NS(C)(=O)=O)cc(C(=O)NCc4ccncc4)c3)nc21	< 800
CC(C)N1CC(=O)N(C)c2cnc(Nc3cccc(S(=O)(=O)CCN(C)C)c3)nc21	< 800
CC(C)N1CC(=O)N(C)c2cnc(Nc3cc(N(C)C(=O)N[C@H]4CCN(C5CCCC5)C4)cc(S(C)(=O)=O)c3)nc21	< 800
CC(C)N1CC(=O)N(C)c2cnc(Nc3cc(NS(C)(=O)=O)cc(C(=O)NCCc4ccccn4)c3)nc21	< 800
CC(C)N1CC(=O)N(C)c2cnc(Nc3cc(NC(=O)[C@H]4CCCN(C5CCCC5)C4)cc(S(C)(=O)=O)c3)nc21	< 800
CC(C)N1CC(=O)N(C)c2cnc(Nc3cc(NS(C)(=O)=O)cc(C(=O)NCCCCN(C)C)c3)nc21	< 800
CC(C)N1CC(=O)N(C)c2cnc(Nc3cc(NC(=O)NC[C@H]4CCCN4C4CCCC4)cc(S(C)(=O)=O)c3)nc21	< 800
CC(C)N1CC(=O)N(C)c2cnc(Nc3cccc(S(=O)(=O)CCN4CCN(C)CC4)c3)nc21	< 800
CC(C)N1CC(=O)N(C)c2cnc(Nc3cc(C(=O)NC4CCN(C)C4)cc(S(C)(=O)=O)c3)nc21 (centres undefined)	< 800
CC(C)NCCS(=O)(=O)c1cccc(Nc2ncc3c(n2)N(C(C)C)CC(=O)N3C)c1	< 800
CC(C)N1CC(=O)N(C)c2cnc(Nc3cc(NC(=O)NCc4cc(C5CC5)[nH]n4)cc(S(C)(=O)=O)c3)nc21	< 800
CC(C)N1CC(=O)N(C)c2cnc(Nc3cc(NS(C)(=O)=O)cc(C(F)(F)F)c3)nc21	< 800
CC(C)N1CC(=O)N(C)c2cnc(Nc3cc(NC4CCC(N)CC4)cc(S(C)(=O)=O)c3)nc21 (centres undefined)	< 800
CCS(=O)(=O)c1cccc(Nc2ncc3c(n2)N(C2CCCCC2)CC(=O)N3C)c1	< 800
CC(C)N1CC(=O)N(C)c2cnc(Nc3cc(NS(C)(=O)=O)cc(C(=O)NCCN(C)C)c3)nc21	< 800
Cc1c[nH]c(CCNC(=O)c2cc(Nc3ncc4c(n3)N(C(C)C)CC(=O)N4C)cc(NS(C)(=O)=O)c2)n1	< 800

The next lines start with the values.

IC50 [nM]	SMILES
< 800	CC(C)N1CC(=O)N(C)c2cnc(Nc3cc(C(=O)NCCc4ccncc4)cc(S(C)(=O)=O)c3)nc21
< 800	CC(C)N1CC(=O)N(C)c2cnc(Nc3cc(NC(=O)Cc4cccc(F)c4)cc(S(C)(=O)=O)c3)nc21
< 800	CC(C)N1CC(=O)N(C)c2cnc(Nc3cc(C#N)cc(S(C)(=O)=O)c3)nc21
< 800	CC(C)N1CC(=O)N(C)c2cnc(Nc3cc(N(C)C(=O)Cc4ccsc4)cc(S(C)(=O)=O)c3)nc21
< 800	CC(C)N1CC(=O)N(C)c2cnc(Nc3cc(NC(=O)[C@H]4CCNC4)cc(S(C)(=O)=O)c3)nc21
< 800	CC(C)N1CC(=O)N(C)c2cnc(Nc3cc(N(C)C(=O)N[C@@H](C)c4ccccc4)cc(S(C)(=O)=O)c3)nc21
< 800	CC(C)N1CC(=O)N(C)c2cnc(Nc3cc(NC(=O)CC4CC4)cc(S(C)(=O)=O)c3)nc21
< 800	CC(C)N1CC(=O)N(C)c2cnc(Nc3cc(N(C)C(=O)Nc4ccccc4)cc(S(C)(=O)=O)c3)nc21
< 800	CC(C)N1CC(=O)N(C)c2cnc(Nc3cc(NC(=O)NCCCN(C)C)cc(S(C)(=O)=O)c3)nc21
< 800	CC(C)N1CC(=O)N(C)c2cnc(Nc3cc(NC(N)=O)cc(S(C)(=O)=O)c3)nc21
< 800	CNC(=O)Nc1cc(Nc2ncc3c(n2)N(C(C)C)CC(=O)N3C)cc(S(C)(=O)=O)c1
< 800	CC(C)N1CC(=O)N(C)c2cnc(Nc3cc(NC(=O)Cc4cccnc4)cc(S(C)(=O)=O)c3)nc21
< 800	CC(C)N1CC(=O)N(C)c2cnc(Nc3cc(NC(=O)Cc4noc5ccccc45)cc(S(C)(=O)=O)c3)nc21
< 800	CC(C)N1CC(=O)N(C)c2cnc(Nc3cc(N(C)C(=O)Cc4cccs4)cc(S(C)(=O)=O)c3)nc21
< 800	CC(C)N1CC(=O)N(C)c2cnc(Nc3cc(NC(=O)C[C@@H]4CCNC4)cc(S(C)(=O)=O)c3)nc21
< 800	CC(C)N1CC(=O)N(C)c2cnc(Nc3cc(NC(=O)C(C)(C)c4ccccc4)cc(S(C)(=O)=O)c3)nc21
< 800	CC(C)N1CC(=O)N(C)c2cnc(Nc3cc(NC(=O)NCc4ccncc4)cc(S(C)(=O)=O)c3)nc21
< 800	CCC(C)Nc1cc(Nc2ncc3c(n2)N(C(C)C)CC(=O)N3C)cc(S(C)(=O)=O)c1 (centres undefined)
< 800	CC(C)N1CC(=O)N(C)c2cnc(Nc3cc(NC(=O)CC4CCCC4)cc(S(C)(=O)=O)c3)nc21
< 800	CC(C)N1CC(=O)N(C)c2cnc(Nc3cc(N(C)C(=O)NCc4ccccc4)cc(S(C)(=O)=O)c3)nc21
< 800	CC(C)N1CC(=O)N(C)c2cnc(Nc3cc(NC(=O)N[C@H]4CCNC4)cc(S(C)(=O)=O)c3)nc21

IC50 [nM]	SMILES
< 800	CC(C)N1CC(=O)N(C)c2cnc(Nc3cc(NC(=O)CCC4CCCC4)cc(S(C)(=O)=O)c3)nc21
< 800	CC(C)N1CC(=O)N(C)c2cnc(Nc3cc(NC(=O)[C@@H]4CCCN4)cc(S(C)(=O)=O)c3)nc21
< 800	CC(C)N1CC(=O)N(C)c2cnc(Nc3cc(NC(=O)Cc4ccccc4)cc(S(C)(=O)=O)c3)nc21
< 800	CC(C)CCC(=O)Nc1cc(Nc2ncc3c(n2)N(C(C)C)CC(=O)N3C)cc(S(C)(=O)=O)c1
< 800	Cc1[nH]c2ccccc2c1CC(=O)Nc1cc(Nc2ncc3c(n2)N(C(C)C)CC(=O)N3C)cc(S(C)(=O)=O)c1
< 800	CC(C)N1CC(=O)N(C)c2cnc(Nc3cc(NS(=O)(=O)c4cccnc4)cc(S(C)(=O)=O)c3)nc21
< 800	COc1ccc2[nH]c(CC(=O)Nc3cc(Nc4ncc5c(n4)N(C(C)C)CC(=O)N5C)cc(S(C)(=O)=O)c3)cc2c1
< 800	CC(C)N1CC(=O)N(C)c2cnc(Nc3cc(Br)cc(S(C)(=O)=O)c3)nc21
< 800	CC(C)N1CC(=O)N(C)c2cnc(Nc3cc(NC(=O)Cc4cccs4)cc(S(C)(=O)=O)c3)nc21
< 800	Cc1cc(CC(=O)Nc2cc(Nc3ncc4c(n3)N(C(C)C)CC(=O)N4C)cc(S(C)(=O)=O)c2)on1
< 800	CC(C)N1CC(=O)N(C)c2cnc(Nc3cc(N(C)C(=O)Cc4cccc(Cl)c4)cc(S(C)(=O)=O)c3)nc21
< 800	CC(C)N1CC(=O)N(C)c2cnc(Nc3cc(NC(=O)NCCc4cccnc4)cc(S(C)(=O)=O)c3)nc21
< 800	CNC(=O)c1cc(Nc2ncc3c(n2)N(C(C)C)CC(=O)N3C)cc(S(C)(=O)=O)c1
< 800	CC(C)N1CC(=O)N(C)c2cnc(Nc3cc(NC(=O)[C@H](N)c4ccccc4)cc(S(C)(=O)=O)c3)nc21
< 800	CC(C)N1CC(=O)N(C)c2cnc(Nc3cc(NC(=O)NC[C@@H]4CCCN4)cc(S(C)(=O)=O)c3)nc21
< 800	CC(C)N1CC(=O)N(C)c2cnc(Nc3cc(CO)cc(S(C)(=O)=O)c3)nc21
< 800	CC(C)N1CC(=O)N(C)c2cnc(Nc3cc(NC(=O)Cc4cc5cc(F)ccc5[nH]4)cc(S(C)(=O)=O)c3)nc21
< 800	CC(C)N1CC(=O)N(C)c2cnc(Nc3cc(NC(=O)[C@@H]4CCCNC4)cc(S(C)(=O)=O)c3)nc21
< 800	CC(C)N1CC(=O)N(C)c2cnc(Nc3cc(NC(=O)c4ccsc4)cc(S(C)(=O)=O)c3)nc21
< 800	CC(C)N1CC(=O)N(C)c2cnc(Nc3cc(NC(=O)c4cccc(C#N)c4)cc(S(C)(=O)=O)c3)nc21
< 800	CC(C)N1CC(=O)N(C)c2cnc(Nc3cc(NC(=O)NC[C@H]4CCNC4)cc(S(C)(=O)=O)c3)nc21
